Data on 3 compounds can be found in patent publication US20110070326A1, “OREGANO EXTRACT AND ITS COMPONENTS FOR ENHANCING VIGILANCE” (DSM IP ASSETS B.V., priority 2006, published 2011).

The test system of assay [1] is mice. Put plainly: Porsolt's Forced Swim Test (Behavioral Despair Test), i.p. Format: in vivo, mouse. The following applies: 32 mg/kg i.p., −30 min; 15 mice. The protocol:
The test, which detects antidepressant activity, was carried out as described by Porsolt et al supra. Mice which are forced to swim in a situation from which they cannot escape rapidly become immobile. Antidepressants decrease the duration of immobility.
Mice were individually placed in cylinders (Height=24 cm, Diameter=13 cm) containing 10 cm water (22° C.) from which they could not escape. The mice were placed in the water for 6 minutes and the duration of immobility during the last 4 minutes was measured.
15 mice were studied per each of the four groups.
Oregano extract 1 was evaluated at 3 doses (10, 30 and 60 mg/kg), administered i.p. 30 minutes before the test, and compared with a control group, administered vehicle in the same manner. The thus administered […] was dissolved in vehicle (saline solution containing 3% (v/v) DMSO and 3% (v/v) Tween® 80). Venlafaxine (16 mg/kg, i.p.), as comparison substance, and imipramine (32 mg/kg, i.p.), as reference compound, were administered under the same experimental conditions.
Data were analyzed by comparing the treated groups with the control group using unpaired Student's t tests and are presented in Table 3.

For assay [2], the system named is mouse. The experiment in a line: Porsolt's Forced Swim Test after subchronic oral gavage. Format: in vivo. The following applies: 32 mg/kg p.o., −24, −5, −1 h. The method, then: This test, which detects antidepressant activity, was performed in the same manner as that described in example 7, except that the route of administering the compound and the doses were different. Oregano extract 4 was evaluated at 3 doses (75, 150, and 300 mg/kg), administered orally (p.o.) 24, 5, and 1 hour before the test, and compared with a vehicle control group. The thus administered […] was dissolved in tocopherol-stripped corn oil “vehicle”). The control group was administered vehicle (p.o.), while imipramine (32 mg/kg, p.o.; dissolved in water) was administered to a separate group as reference compound, 24, 5 and 1 h prior to the test.
Mice were individually placed in cylinders (Height=24.5 cm, Diameter=19.5 cm) containing 13.5 cm water (22° C.) from which they could not escape. The mice were placed in the water for 6 minutes, automatically viewed via a video camera and monitored by a commercially available software system (VideoMot2, TSE Systems GmbH, Germany), and the duration of immobility during the last 4 minutes was measured.
10 mice were studied per each of the five groups. Data were analyzed by comparing the treated groups and the positive control group with the vehicle group using Analysis of Variance (ANOVA) and the Bonferroni post-hoc test.

The target of assay [3] is T1, human serotonin re-uptake transporter (hSERT) (Homo sapiens, UniProt P31645).
T1 construct: host or cells: HEK-293
The experiment in a line: Serotonin uptake inhibition in HEK-293 cells expressing hSERT. Format: cell-based. To be noted: single compounds; transfected HEK-293 cells, 20 nM 3H-serotonin, 30 minutes; read-out: IC50 for tritiated serotonin uptake. The protocol:
HEK-293 cells stably expressing the human serotonin re-uptake transporter (hSERT) were obtained from R. Blakely, Vanderbilt University, USA. The cells were routinely grown in Dulbecco's Modified Eagle's Medium, purchased from Bioconcept, Allschwil, Switzerland containing 10% fetal calf serum, penicillin, streptomycin, L-glutamine and the antibiotic G418 and passaged by trypsinisation. 1 day prior to the assay cells were seeded in the above mentioned medium. […] Serotonin uptake into the cells was determined by addition of radio-labeled (3H) serotonin (Amersham Biosciences GE Healthcare, Slough, UK) to a concentration of 20 nM, and incubation for 30 minutes at room temperature. Following removal of unincorporated label by gentle washing three times with the above buffer, incorporated serotonin was quantified by liquid scintillation counting.

Assay [4] has as its target T2, human dopamine transporter (hDAT) (Homo sapiens, UniProt Q01959).
T2 construct: expressed in transfected cells; host or cells: CHO-Ki (CHO-K1)
Format: cell-based. To be noted: transfected CHO-Ki cells, 50 nM [3H]Dopamine; n = 2; read-out: IC50 for inhibition of dopamine reuptake. The protocol: CHO-Ki/hDAT cells expressing the human dopamine transporter (hDAT) were plated before the assay. Cells (2×10^5/ml) were incubated with oregano extract and/or vehicle in modified Tris-HEPES buffer pH 7.1 at 25° C. for 20 minutes before addition of 50 nM [^3H]Dopamine for 10 minutes. Specific signal was determined in the presence of 10 μM nomifensine. Cells were then solubilized with 1% SDS lysis buffer. Reduction of [^3H]Dopamine uptake by 50 percent or more (≧50%) relative to vehicle controls indicates significant inhibitory activity.

T1 sequence (P31645 whole entry): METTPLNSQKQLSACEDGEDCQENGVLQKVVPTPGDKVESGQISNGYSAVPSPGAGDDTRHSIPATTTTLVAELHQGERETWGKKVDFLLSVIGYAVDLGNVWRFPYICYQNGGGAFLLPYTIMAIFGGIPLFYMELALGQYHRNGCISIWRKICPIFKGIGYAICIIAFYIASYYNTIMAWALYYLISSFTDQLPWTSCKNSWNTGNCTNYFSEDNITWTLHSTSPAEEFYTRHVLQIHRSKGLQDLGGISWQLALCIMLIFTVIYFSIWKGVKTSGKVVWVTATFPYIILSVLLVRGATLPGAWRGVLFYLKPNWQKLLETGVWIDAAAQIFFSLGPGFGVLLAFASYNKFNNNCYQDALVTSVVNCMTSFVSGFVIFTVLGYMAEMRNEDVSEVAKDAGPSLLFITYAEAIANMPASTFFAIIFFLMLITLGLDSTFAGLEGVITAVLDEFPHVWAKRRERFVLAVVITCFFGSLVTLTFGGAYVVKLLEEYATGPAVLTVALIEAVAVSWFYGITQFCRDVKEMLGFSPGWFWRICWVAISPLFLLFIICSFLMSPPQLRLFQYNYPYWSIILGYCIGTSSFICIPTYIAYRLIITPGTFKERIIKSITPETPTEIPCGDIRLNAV
T2 sequence (Q01959 whole entry): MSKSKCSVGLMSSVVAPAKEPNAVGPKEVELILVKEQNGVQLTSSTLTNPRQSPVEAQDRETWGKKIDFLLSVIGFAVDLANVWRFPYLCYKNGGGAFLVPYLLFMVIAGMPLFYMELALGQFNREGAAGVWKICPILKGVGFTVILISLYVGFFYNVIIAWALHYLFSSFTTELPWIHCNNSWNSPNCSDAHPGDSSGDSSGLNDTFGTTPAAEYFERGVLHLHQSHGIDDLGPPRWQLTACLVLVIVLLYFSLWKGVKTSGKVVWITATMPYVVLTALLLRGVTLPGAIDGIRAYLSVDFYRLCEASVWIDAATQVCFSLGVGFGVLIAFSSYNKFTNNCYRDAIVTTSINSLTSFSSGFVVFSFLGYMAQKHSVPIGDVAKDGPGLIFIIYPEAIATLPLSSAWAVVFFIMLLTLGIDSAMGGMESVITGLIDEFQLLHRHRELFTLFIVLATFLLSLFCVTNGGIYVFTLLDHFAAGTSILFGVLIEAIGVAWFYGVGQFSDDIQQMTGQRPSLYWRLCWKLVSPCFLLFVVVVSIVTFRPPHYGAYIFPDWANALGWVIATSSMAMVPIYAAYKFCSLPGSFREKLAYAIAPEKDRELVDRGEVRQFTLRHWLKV

On to `CN(C)CCCN1c2ccccc2CCc2ccccc21` [Imipramine], for which the results for the “DURATION OF IMMOBILITY % change from control” value in assay [1] and in assay [2] were −70% and −50%, respectively. Further, the figures for the “DURATION OF IMMOBILITY (s) Mean ± s.e.m.” value in assay [1] and in assay [2] (10 mice) were 49.7 ± 7.9 s and 64.59 ± 8.26 s, respectively.
Consider `Cc1ccc(C(C)C)c(O)c1` [Thymol], for which, in assay [3], the IC50 – broadly, the midpoint of a concentration-inhibition curve – came to 5 µM.
For the compound `Cc1cc(O)c(C(C)C)cc1O` [Thymoquinol], the IC50 is 26.6 µM in assay [3] and 65.6 ± 1.2 µM in assay [4].
